Converted amounts (≈) assume the structure as drawn. “Also recorded” adds a separate entry of the source. Like-named read-outs stand apart in the source and are kept apart here.
How the values were obtained:
[1] = test system: N. gonorrhoeae strain NCCP11945; assay: Growth inhibition screen on GC solid media containing 1 mM candidate; format: cell-based, Neisseria gonorrhoeae; conditions: 1 mM candidate in GC agar media; Yes = strain NCCP11945 did not grow
Protocol: (§1) To find potential candidates, 37 organic acids, esters, and salts were tested in a two-tiered screening process. These candidates were chosen based on the carbon chain lengths of the fatty acids, the presence or absence of saturation, and modifications to represent a diverse selection of organic acid candidates. The first screen aimed to determine the ability of each compound to inhibit the growth of N. gonorrhoeae strain NCCP11945 at 1 mM in GC solid media (Table 1). This strain was chosen due to its relatively recent isolation, its antibiotic resistance profile, and the availability of a complete genome sequence. Those candidates able to inhibit the growth of N. gonorrhoeae strain NCCP11945 were investigated in a second assay. The second assay tested the ability of each compound to cause at least a 4-log reduction in viable bacteria at 1 mM with a 2-min exposure time (Table 1).
(§2) The well-characterized N. gonorrhoeae NCCP11945 strain ([36]) was used in the screening stage. Eight isolates obtained from Public Health England, representing circulating isolates from various European locations, were used in the log reduction assays. All isolates were cultured for 24 h prior to testing by plating on GC solid medium (Oxoid Limited, Hampshire, United Kingdom) with Kellogg supplements and incubation at 37°C and 5% CO2 ([37]).

[2] = test system: N. gonorrhoeae strain NCCP11945; assay: Log reduction assay in GC broth, 2-min exposure; format: cell-based, Neisseria gonorrhoeae; conditions: for log reduction at 1000 µM: Neisseria gonorrhoeae, NCCP11945, 2 min, 1 mM, read-out: Log reduction at 1 mM (calculated log reduction in viable bacteria); for log reduction at 1000 µM / Log reduction at 1 mM (calculated log reduction in viable bacteria): maximum score 6 = all cells killed
Protocol: as §1
(§3) Log reductions were done as described by Bergsson and coworkers ([18]). Briefly, cells were suspended in GC broth (18 g/liter GC base [Oxoid, Limited] with added defined supplements) to an optical density at 520 nm of 0.3, which is approximately equivalent to 10^7 to 10^8 cells per ml ([38]). […] The contents of the tubes were then mixed at room temperature for 2 min and immediately diluted in a 10-fold dilution series to 10^−4. The dilutions were plated by spreading 10 µl on a quarter of a plate; a 100-µl neat solution was also plated. Plates were then incubated at 37°C for 48 h, with all samples plated in duplicate. […] Additional testing at lower concentrations was also done on the eight clinical isolates of European origin.

[3] = test system: gonococcal cells (isolate NCCP 11945); assay: Log reduction in artificial tear fluid with or without calcium chloride; format: cell-based, Neisseria gonorrhoeae; conditions: for Reduction in bacterial cell number in artificial tear fluid containing calcium chloride / Antigonococcal properties in tear fluid made without calcium chloride: 1 mM candidate, 2 min; for Reduction in bacterial cell number in artificial tear fluid containing calcium chloride: with calcium; for Effect of calcium in artificial tear fluid on antimicrobial effect: calcium 1 mM, Fig. 2
Protocol: The antigonococcal properties of the seven selected fatty acids were tested in artificial tear fluid, which contained calcium chloride. The addition of 1 mM lauric acid, tridecanoic acid, or sodium dodecanoate gave no reduction in bacterial cell number after exposure, in contrast to the results seen when they were tested in culture medium (Fig. 2). […] This was most likely due to the negative effect of calcium on the aqueous solubility of these candidates.
Artificial tear fluid was made as described by Mirejovsky and others ([39]) with or without calcium chloride. […] As with the previous log reductions, 10^7 gonococcal cells (isolate NCCP 11945) were suspended in GC broth. The cell suspension was centrifuged to remove the culture medium, and the bacteria were resuspended in the tear fluid. This was then added to the concentrated organic acid candidates. The cells were then enumerated again after 2 min of exposure to estimate any reduction in cell number due to the exposure to the organic acid.

[4] = test system: nine gonococcal isolates (strain NCCP11945 and eight isolates from Public Health England); assay: Minimum bactericidal concentration by log reduction against nine gonococcal isolates; format: cell-based, Neisseria gonorrhoeae; conditions: for Killing of all gonococcal cells for all isolates: 1 mM; for MBC: lowest concentration giving mean log reduction above 4 from a 2-min exposure
Text: The seven candidates were further tested against nine gonococcal isolates, including strain NCCP11945 and eight isolates from Public Health England, to find their minimal bactericidal concentration (MBC). This was defined as the lowest concentration tested to give an average 4-log10 reduction in bacterial count after a 2-min exposure. […] Any candidate that killed all gonococcal cells in the cell suspension was given a log reduction score of six.
as §2, §3

bovine RBCs = assay: Red blood cell (RBC) lysis assay; format: cell-based
Protocol: Whole bovine blood was obtained from a local slaughter house (ABP), adding 90 ml blood to 10 ml 110 mM trisodium citrate anticoagulant. RBCs were isolated the same day. The RBCs were washed by three repeats of centrifugation (1,500 × g for 10 min) and resuspension in phosphate-buffered saline (PBS) with 10 mM glucose (PBSG). Testing was done following the guidelines of the European Union Reference Laboratory for alternatives to animal testing (EURL-ECVAM) ([22]). The organic acids were solubilized in dimethyl sulfoxide (DMSO) and diluted to a maximum DMSO concentration of 10%. In a 2-ml centrifuge tube, 750 µl of the sample was added to 250 µl RBCs. Controls used in the assay were a complete lysis control (deionized water) and a fragility control (PBSG–10% DMSO). Samples were shaken at room temperature for 1 h and then centrifuged at 14,000 × g for 2 min. An aliquot of 750 µl of the supernatant was taken and its absorbance at 451 nm measured.

bovine cornea = assay: Bovine corneal opacity and permeability (BCOP) test
Protocol: Bovine eyes were collected from a local slaughter house (ABP, Guildford, Surrey, United Kingdom) and were transported in cold saline solution for testing at the laboratory. Each eye was first visually examined for signs of damage before use. The test was conducted as detailed by Abdelkader and coworkers ([21]). The exposure time of the test substances was 30 s. The selected bactericidal compounds were tested at 1 mM in saline solution, with a corresponding vehicle control (1% ethanol–saline solution) also performed. […] The test area of the cornea was then washed with 10 ml saline solution. Corneal damage to the test area was assessed by fluorescein staining and examination under a cobalt blue filter. Pathological scoring based on opacity, epithelial integrity, and epithelial detachment was done in accordance with previous publications ([19]). Each of the seven lead candidates was tested in triplicate, and each test was performed on a separate day using a different batch of eyeballs. Corneal histology was done as outlined by Abdelkader and coworkers ([21]) by evaluating the damage to the epithelial layer and stroma of the cornea after hematoxylin and eosin staining.

[5] = Neisseria gonorrhoeae, 2 min, read-out: MBC

SMILES | Growth inhibition [1] | Log reduction at 1 mM: at least a 4-log reduction in viable bacteria (Yes/No) [2] | log reduction at 1000 µM [2] | other results
O=C(O)CCCCCCCC(=O)O [Azelaic acid] | No |  |  | 
CCCCCCCCCCCCCCCC(=O)O [Palmitic acid] | No |  |  | 
CCCCCCCCCCCCC(=O)O [Tridecanoic acid] | Yes | Yes | > 6 | Reduction in bacterial cell number in artificial tear fluid containing calcium chloride [3]: no reduction; Antigonococcal properties in tear fluid made without calcium chloride [3]: completely restored; Effect of calcium in artificial tear fluid on antimicrobial effect [3]: inactivated; Killing of all gonococcal cells for all isolates ([4]; 2 min): did not; MBC [4, 5]: 750 µM (≈ 161 µg/mL); H50 concentration relative to MBC (bovine RBCs): greater than their MBCs; RBC lysis (hemolysis) (bovine RBCs; 1 h incubation, bovine RBCs): did not lyse RBCs at any concentration investigated; also recorded: did not cause any hemolysis
O=C(O)CCCCC(=O)O [Adipic acid] | No |  |  | 
CCCCCCCC(=O)O [Caprylic/octanoic acid] | No |  |  | 
CCCCCC/C=C\CCCCCCCC(=O)O [Palmitoleic acid] | Yes | Yes | > 6 | Killing of all gonococcal cells for all isolates ([4]; 2 min): did not; MBC [4, 5]: 500 µM (≈ 127 µg/mL); H50 concentration relative to MBC (bovine RBCs; H50 = concentration to lyse 50% of RBCs, MBC from Table 1): lower than their minimum bactericidal concentration
O=C(O)CCC(=O)O [Succinic acid] | No |  |  | 
CCCCCCCCCCCCCC(=O)[O-].[Na+] [Sodium myristate] | Yes | No |  | Log reduction at 1 mM (calculated log reduction in viable bacteria) [2]: 0.5 log10
CCCCCCCCCCCCCC(=O)O [Myristic acid] | Yes | No | 1.5 | 
O=C(O)CCCCCCC(=O)O [Suberic acid] | No |  |  | 
CCCCC/C=C\C/C=C\C/C=C\C/C=C\CCCC(=O)O [Arachidonic acid] | Yes |  |  | 
CCCCC/C=C\C/C=C\CCCCCCCC(=O)O [Linoleic acid] | Yes | No | 1.6 | 
O=C(O)CCCCCCCCC(=O)O [Sebacic acid] | No |  |  | 
CCCCCCCC/C=C\CCCCCCCC(=O)O [Oleic acid] | Yes | No | 1 | 
CCCCCCCCCCCCCCCC(=O)OC(C)C [Isopropyl palmitate] | No |  |  | 
CCCCCCCCCCCCCCCCC(=O)O [Heptadecylic acid] | No |  |  | 
CCCCCCCCCC(=O)O [Capric acid/decanoic acid] | No |  |  | 
CCCCCCCC/C=C/CCCCCCCC(=O)O [Elaidic acid] | Yes | No | 0.5 | 
CCCCCCCCCCCC(=O)O [Lauric acid] | Yes | Yes |  | Log reduction at 1 mM (calculated log reduction in viable bacteria) [2]: > 6 log10; Reduction in bacterial cell number in artificial tear fluid containing calcium chloride [3]: no reduction; Antigonococcal properties in tear fluid made without calcium chloride [3]: completely restored; Effect of calcium in artificial tear fluid on antimicrobial effect [3]: inactivated; Killing of all gonococcal cells for all isolates ([4]; 2 min): killed all gonococcal cells for all isolates; MBC [4]: 750 µM (≈ 150 µg/mL); H50 concentration relative to MBC (bovine RBCs): greater than their MBCs
CCCCCCCCCCCCCC(=O)OC(C)C [Isopropyl myristate] | No |  |  | 
CCCCCCCCCCCCCCC(=O)O [Pentadecylic acid] | Yes | No |  | Log reduction at 1 mM (calculated log reduction in viable bacteria) [2]: 0.5 log10
CCCCCCCC/C=C\CCCCCCCCCCCC(=O)O [Erucic acid] | Yes | No | 0 | 
C/C=C/C=C/C(=O)O [Sorbic acid] | No |  |  | 
CCCCCCCCCCC(=O)O [Undecanoic acid] | Yes | No | 0.2 | 
CCCCCC[C@@H](O)C/C=C\CCCCCCCC(=O)O [Ricinoleic acid] | Yes | No |  | Log reduction at 1 mM (calculated log reduction in viable bacteria) [2]: 3.5 log10
CCCCCCCCCCCC(=O)[O-].[Na+] [Sodium dodecanoate] | Yes | Yes |  | Log reduction at 1 mM (calculated log reduction in viable bacteria) [2]: > 6 log10; Reduction in bacterial cell number in artificial tear fluid containing calcium chloride [3]: no reduction; Antigonococcal properties in tear fluid made without calcium chloride [3]: completely restored; Effect of calcium in artificial tear fluid on antimicrobial effect [3]: inactivated; Mean cumulative BCOP score (bovine cornea; 1 mM in saline solution, 30 s exposure, triplicate): lower than 0.5; Fluorescein staining of cornea (bovine cornea; 1 mM, around rubber application ring): any sign of fluorescein staining; BCOP irritancy classification (bovine cornea; candidates 1 mM in saline, controls 0.5 M NaOH, 100% acetone, 30 s exposure): nonirritants; Killing of all gonococcal cells for all isolates ([4]; 2 min): killed all gonococcal cells for all isolates; MBC [4]: 750 µM
CCCCCCCCCCCCCCCCCC(=O)O [Stearic acid] | No |  |  | 
CCCCCCCCCCCCCC(=O)OCC(O)CO (stereo not drawn) [Monomyristin] | Yes | No |  | Log reduction at 1 mM (calculated log reduction in viable bacteria) [2]: 0.6 log10
CCCCCCCC(=O)OCC(O)CO (racemic) [1-octanoyl-rac-glycerol] | Yes | No | 0 | 
O=C(O)CCCCCC(=O)O [Pimelic acid] | No |  |  | 
